In patent US8354237B2, “Anti-methylation-controlled j protein antibodies and uses thereof” (University of Vermont and State Agriculture College, priority 2007, dated 2013):
Peptide text beside a SMILES is read from it. * marks the point of attachment. Cbz = O=C(OCc1ccccc1)*

Columns and labels:
Type in all cases: cell-based, human
[1] = tested on: c-Jun; test: c-Jun expression by Western blot in MCF7 cells treated with proteasome inhibitor; settings: MG132 5 μM, 4 h
Method: Whole cell extracts were prepared in lysis buffer as previously described (Pedraza-Alva et al., J Biol Chem 276, 729-737, 2001). 40-100 μg of proteins were separated by electrophoresis and transferred on to a nitrocellulose membrane (Conze et al., Cancer Res 61, 8851-8858, 2001). Primary antibodies for Western blotting include anti-ABCB1 (JSB-1 clone) from (ALEXIS corporation Switzerland), rabbit polyclonal anti-MCJ, anti-HA, anti-c-Jun, from (Cell Signaling Technology, Inc) anti-actin and the secondary antibodies goat anti-mouse HRP, goat anti-rabbit HRP and donkey anti-goat HRP Ab from (Santa Cruz Biotechnology). LUMIGLO® chemiluminescent substrate system (KPL, Maryland) was used to visualize the proteins. Levels of actin were determined as loading control.
It was determined whether the increased c-Jun DNA binding in siMCJ cells could be due to an upregulation of c-Jun protein levels. The levels of c-Jun by Western blot analysis were examined using whole cell lysates. Very low levels of c-Jun were detected in MCF7 cells, but high levels were present in MCF7/siMCJ cells (FIG. 8D). It has been previously reported that c-Jun levels can be regulated by ubiquitination and proteasome mediated degradation (Treier et al., Cell 78, 787-798, 1994). […]

[2] = tested on: MCF7 cells; test: Cell viability assay (MTT assay); settings: for response of cells to drug (percent viability, MTT assay): MCF7 cells
Method: (§1) MCF7 and MCF7/ADR cells were a kind gift from Dr. Ken Cowan (National Cancer Institute, Bethesda, Md.). MCF7, MCF7/ADR, MCF7/siMCJ-1B MCF7/siMCJ-3B, […], MD22, MES-SA and MES-Dx5 cells were maintained in RPMI-1640 (Life technologies, Inc., Gaithersburg, Md.) containing 5% FBS (Hyclone, Logan, Utah), Penicillin/streptomycin and 1-glutamine (Gibco). 293T cells were cultured in DMEM-F12 medium (Life technologies, Inc.) supplemented with 10% FBS (Hyclone, Logan, Utah).
(§2) The dose response of cell line to different drugs was determined by MTT assay as described previously (Conze et al., Cancer Res 61, 8851-8858, 2001; Sladowski et al., J Immunol Methods 157, 203-207, 1993). Different concentrations of drug were used, ranging from 0-100 μM for Doxorubicin, 0-30 μM for Paclitaxel and 0-30 μM for 5-Flurouracil. LD50 values were calculated by non-linear regression and plotted graphically as percentage of viable cells.

[3] = tested on: MCF7/siMCJ-3B cells; test: Cell viability assay (MTT assay)
Method: as §1, §2

[4] = tested on: MCF7/siMCJ-1B cells; test: Cell viability assay (MTT assay)
Method: as §1, §2

[5] = tested on: MCF7/ADR cells; test: Cell viability assay (MTT assay)
Method: as §1, §2

[6] = tested on: MCF7/ADR cells; test: Analysis of drug internalization (flow cytometry, confocal microscopy); settings: 0.3 and 3 μM, 3 h
Method: (§3) MCF7, MCF7/ADR, MCF7/siMCJ-1B and MCF7/siMCJ-3B cells were treated with doxorubicin (0.3 or 3 μM) for 3 h at 37° C. Negative controls had no drug added. Cells were washed 3 times with PBS and trypsinised and doxorubicin fluorescence was examined by flow cytometry using a LSRII flow cytometer (BD Biosciences, Mass.). FLP3, 695/40 nm filter with 685 nm long pass was used to measure doxorubicin fluorescence. For MCF7/siMCJ cells, EGFP was detected in FLP1, 530/30 nm band-pass with 505 nm long pass. No overlap of two fluorescences could be detected. Confocal microscopy: MCF7, MCF7/ADR, MCF7/siMCJ-1B and -3B (3×10^4) cells were seeded on BD Biocoat coverslips (BD Biosciences, Bedford, Mass.) and treated with doxorubicin in the presence or absence of veraparnil (10 μM). After different periods of time (0, 2, 3 h) cells were washed with PBS and fixed in 3.7% paraformaldehyde to be examined by confocal microscopy. Since both, EGFP (present in MCF7/siMCJ cells) and doxorubicin are excited by 488 nm, the conventional multi track type of analysis could not be used. Instead, the Lambda Mode analysis in the Zeiss confocal microscope (Zeiss LSM 510 META Confocal Laser Scanning Imaging System, Carl Ziess Microimaging Inc, Thronwood, N.Y.) was used that allows a precise analysis of the emission spectrum for each fluorochrome (Chen and Simon, J Cell Biol 148, 863-870, 2000). The cells were excited at 488 nm and emission peaks were readily separated by this methodology with EGFP emission at 500 nm and doxorubicin at 600 nm (FIG. 10).

[7] = tested on: MCF7 cells; test: as above
Method: as §3

[8] = tested on: MCF7/siMCJ-3B cells; test: as above; settings: 3 h; for intracellular accumulation of doxorubicin: flow cytometry
Method: as §3

[9] = tested on: MCF7/siMCJ-1B cells; test: as above; settings: for effect on intracellular accumulation of doxorubicin: verapamil 10 μM
Method: as §3

[10] = tested on: MCJ; test: MCJ mRNA expression by RT-PCR in MCF7 cells cultured with IL-6; settings: IL-6 50 ng/ml, 8 days (one week), RT-PCR and real-time RT-PCR
Source text: Total RNA was isolated using ULTRASPEC® RNA isolation systems, as recommended by the manufacturer (Biotecx Laboratories, Inc, Houston, Tex.). The first strand cDNA was obtained by reverse transcription as described previously (Conze et al., Cancer Res 61, 8851-8858, 2001). cDNA was used to detect human […], HPRT, MCJ, ABCG2 and ABCC1 expression by conventional PCR or real-time RT-PCR. Previously described primers were used for the conventional RT-PCR amplification of ABCB1 (Noonan et al., Proc Natl Acad Sci USA 87, 7160-7164, 1990), HPRT (Conze et al., Cancer Res 61, 8851-8858, 2001), ABCC1 (Harbottle et al., Int J Cancer 92, 777-783, 2001), ABCG2 (Doyle and Ross, Oncogene 22, 7340-7358, 2003) and MCJ (Shridhar et al., Cancer Res 61, 4258-4265, 2001). For the real-time RT-PCR analysis, by TAQMAN® system (Applied Biosystems), an Assay on Demand Kit for human HPRT and ABCB1 (Sigma, Genosys) was used. For the detection of MCJ by real time RT-PCR, we used the following probe and primer set were used (Sigma, Genosys) (probe 5′-[…]-3; (SEQ ID NO:22) sense primer 5′-CAGAAAATGA GTAGGCGAGAAGC-3′ (SEQ ID NO:23) and anti-sense primer 5′-[…]-3′ (SEQ ID NO:24). HPRT was used as an endogenous control to normalize the mRNA values in each sample. The relative values were determined by the comparative CT analysis method. […]

In the case of `CC(C)C[C@@H](C=O)NC(=O)[C@H](CC(C)C)NC(=O)[C@H](CC(C)C)NC(=O)OCc1ccccc1` [MG132] (Cbz-Leu-Leu-Leu-aldehyde), the “c-Jun levels compared with untreated MCF7 cells” value [1] is reported as “Increased levels”.

For `CC(=O)O[C@H]1C(=O)[C@@]2(C)[C@H]([C@H](OC(=O)c3ccccc3)[C@]3(O)C[C@H](OC(=O)[C@H](O)[C@@H](NC(=O)c4ccccc4)c4ccccc4)C(C)=C1C3(C)C)[C@]1(OC(C)=O)CO[C@@H]1C[C@@H]2O` [paclitaxel], the “response of cells to drug (percent viability, MTT assay)” value [2] was “highly sensitive”, the “response of cells to drug (percent viability, MTT assay)” value [3] was “highly resistant” and the “response of cells to drug (percent viability, MTT assay)” value [4] was “highly resistant”.

In the case of `COc1cccc2c1C(=O)c1c(O)c3c(c(O)c1C2=O)C[C@@](O)(C(=O)CO)C[C@@H]3O[C@H]1C[C@H](N)[C@H](O)[C@H](C)O1` [doxorubicin], the “response of cells to drug (percent viability, MTT assay)” value [5] is reported as “highly resistant”, the “response of cells to drug (percent viability, MTT assay)” value [2] is reported as “highly sensitive” and the “response of cells to drug (percent viability, MTT assay)” value [3] is reported as “significantly more resistant”. The “response of cells to drug (percent viability, MTT assay)” value [4] was “significantly more resistant”, the “intracellular accumulation of doxorubicin” value [6] was “no doxorubicin was observed” and the “doxorubicin fluorescence (intracellular accumulation)” value (from here on “doxorubicin fluorescence”) ([7]; confocal microscopy, 1, 2 or 3 h) was “maximum level of intracellular accumulation was reached after 3 h”. The “intracellular accumulation of doxorubicin” value ([7]; flow cytometry, 0.3 and 3 μM, 3 h) was “High levels”, the “doxorubicin fluorescence” value ([8]; confocal microscopy) was “no doxorubicin fluorescence was observed” and the “intracellular accumulation of doxorubicin” value ([8]; 0.3 μM) was “no intracellular accumulation”. The “intracellular accumulation of doxorubicin” value ([8]; 3 μM) was “very low intracellular levels”, the “doxorubicin fluorescence” value ([9]; confocal microscopy, 3 h) was “no doxorubicin fluorescence was observed” and the “intracellular accumulation of doxorubicin” value ([9]; flow cytometry, 0.3 μM, 3 h) was “no intracellular accumulation”. The “intracellular accumulation of doxorubicin” value ([9]; flow cytometry, 3 μM, 3 h) was “very low intracellular levels”.

With `O=c1[nH]cc(F)c(=O)[nH]1` [5-FU, 5-fluorouracil] the “dose-response compared between cell lines (MTT assay)” value ([2]; MCF7, MCF7/ADR, MCF7/siMCJ-1B and -3B cells) was “comparable”.

For `COc1ccc(CCN(C)CCCC(C#N)(c2ccc(OC)c(OC)c2)C(C)C)cc1OC` (stereo not shown) [verapamil], the “effect on intracellular accumulation of doxorubicin” value (shortened to “effect”) ([7]; flow cytometry, verapamil 10 μM, doxorubicin 3 μM, 3 h) was “no effect”, the “effect” value ([9]; confocal microscopy, doxorubicin 3 h) was “clear intracellular accumulation was observed” and the “effect” value ([9]; flow cytometry, doxorubicin 3 μM, 3 h) was “allowed the intracellular accumulation of doxorubicin”.

In the case of “IL-6: exogenous IL-6 added to MCF7 cell culture”, the “MCJ mRNA levels compared with untreated MCF7 cells” value [10] is reported as “reduced levels”.
